The numbers were not newly measured in patent US20200101019A1, “USE OF LIPOSOMES FOR TREATMENT OF CHRONIC VIRAL HEPATITIS B” (JIANGSU MENDEL GENE TECHNOLOGY CO., LTD, priority 2017, published 2020), which cites them from elsewhere.

The series concerns Hepatitis B virus (HBV). Conditions: AASLD Guidelines for Treatment of Chronic Hepatitis B, Hepatology 2016.

Turning to `Nc1ncnc2c1ncn2CCOCP(=O)(O)O` [Adefovir], the “HBeAg/anti-HBe seroconversion rate after treatment with other drugs” value is reported as 12%.

Regarding `C=C1[C@H](CO)[C@@H](O)C[C@@H]1n1cnc2c(=O)[nH]c(N)nc21` [Entecavir], the “HBeAg/anti-HBe seroconversion rate after treatment with other drugs” value is listed as 21%.
